{
  "source": "patent US5096924A",
  "about": "“Anticancer antibiotic MI43-37F11 substance” (501 Azidan Hojin Biseibutsu Kagaku Kenkyu Kai, priority 1989, dated 1992)",
  "key": {"mouse Leukemia L1210": {"system": "mouse Leukemia L1210", "test": "Inhibition of proliferation of mouse leukemia L1210 cells", "assay_type": "cell-based", "settings": "48 h; mouse leukemia L1210, 37° C, 2 days", "description": "(§1) A cell suspension containing cells of mouse Leukemia L1210, mouse Leukemia P388, mouse Leukemia EL4, mouse IMC carcinoma or human lung cancer LX-1 cells in a culture medium containing 10% calf serum at a cell density of 1 x 10^5 cells/ml was prepared, and 200 μl-portion of the cell suspension so prepared was placed in a microplate and then added with a solution of MI43-37F11 substance at varying concentrations (dissolved in a mixture of water and dimethylsulfoxide (95:5)). The cell suspension containing the test compound added was subsequently incubated at 37° C for 2 days (but 5 days for the LX-1 cells).\n(§2) After the incubation, the number of the cells of the L1210 cells, P388 cells, the EL4 cells and the IMC carcinoma cells in the treated groups was counted by means of Coulter-counter. The control group (untreated) of the cell suspension to which the test compound was not added was incubated in the same way as above and then the number of the cells was similarly counted.\n(§3) Rate (%) of inhibition of the cell proliferation of the treated group against that of the control group (untreated) was evaluated. […]"}, "mouse Leukemia P388": {"system": "mouse Leukemia P388", "test": "Inhibition of proliferation of mouse leukemia P388 cells", "assay_type": "cell-based", "settings": "48 h; mouse leukemia P388, 37° C, 2 days", "description": "as §1, §2, §3"}, "peritoneal macrophages": {"system": "peritoneal macrophages", "test": "Activation of peritoneal macrophages (production of O2-)", "assay_type": "in vivo, CDF1 mice", "settings": "for Rate (%) of increase in production of O2^-: one day before harvest, control 100", "description": "(3) Experiments for estimation of the activity of MI43-37F11 substance to activate peritoneal macrophages were conducted by the following procedure. Thus, one day before the harvest of the peritoneal macrophages, the antibiotic MI43-37F11 substance was intraperitoneally administered to CDF1 mice (8-week old, female, 3 mice in each group) at a dosage of 50 mg/kg, 12.5 mg/kg or 3.125 mg/kg. One day after the administration, the macrophages were harvested from the peritoneal cavity of the treated mice and placed into a culture medium present in a plastic dish (Falcone, No. 3002, […], a product of Decton Dikinson & Company) at the cell concentration of 1×10^6 cells/m(, followed by incubation of the macrophages. The incubated medium containing the macrophages was then added with 100 ng/ml of phorbol myristate acetate to elicite the macrophages for their production of O2 -. The amount of O2 - was determined by reductive reaction with cytochrome C. The control group of mice (untreated) received only intraperitoneal injection of physiological saline in place of the administration of MI43-37F11 substance before the harvest of the peritoneal macrophages was done. Assumed that the amount of O2 - as produced and liberated by the peritoneal macrophages which were harvested from the mice of the control group was amounting to 100, the rate of increase in the amount of O2 - as produced by the peritoneal macrophages of the mice of the treated group was evaluated. In other words, the rate (%) of increase in the production of O2 - by the peritoneal macrophages of the mice of the treated group was calculated according to the following equation; [formula] where T means the amount of O2^- produced by the peritoneal macrophages of the mice of the treated group and C means the amount of O2^- produced by the peritoneal macrophages of the control group (untreated)."}, "human lung cancer LX-1": {"system": "human lung cancer LX-1", "test": "Inhibition of proliferation of human lung cancer LX-1 cells (MTT)", "assay_type": "cell-based", "settings": "120 h, human lung cancer LX-1, 37° C, 5 days", "description": "as §1, with “cells). […]” for “cells).”"}},
  "data": [
    {"smiles": "COc1cc(O)c2c(=O)oc(CO)cc2c1", "note": "[MI43-37F11 substance]", "values": [
      {"measurement": "IC50", "setting": "mouse Leukemia L1210", "result": 50, "unit": "µg/mL"},
      {"measurement": "IC50", "setting": "mouse Leukemia P388", "result": 50, "unit": "µg/mL"},
      {"measurement": "Rate (%) of increase in production of O2^-", "setting": "peritoneal macrophages; 3.125 mg/kg i.p.", "result": 105, "unit": "%"},
      {"measurement": "Rate (%) of increase in production of O2^-", "setting": "peritoneal macrophages; 12.5 mg/kg i.p.", "result": 127, "unit": "%"},
      {"measurement": "Rate (%) of increase in production of O2^-", "setting": "peritoneal macrophages; 50 mg/kg i.p.", "result": 255, "unit": "%"},
      {"measurement": "increased production of O2- by peritoneal macrophages", "setting": "peritoneal macrophages; summary in words", "result": "effective"},
      {"measurement": "IC50", "setting": "human lung cancer LX-1", "result": 100, "unit": "µg/mL"}
    ]}
  ]
}
